According to patent US20240408057A1, “Composition for preventing or treating cachexia and muscle loss” (METAFINES.CO.LTD., priority 2023, published 2024):
Where two headings read alike, the source gives them in different places.

Experiments:
MuRF1 [1] = experiment: MuRF1 expression (Western blot) in CCM-treated C2C12 myotubes; type: cell-based, mouse; details: 72 hours, compared to other experimental groups (components alone and in combination)
Protocol: (§1) A C2C12 cell line was dispensed into a 6-well plate at 4.0×10^5 cells/well, and then cultured in DMEM medium containing 10% fetal bovine serum (FBS) under 37° C. and 5% CO2 conditions for one day. When the cell density reached about 80%, the medium was replaced with a differentiation medium and the cells were cultured for additional 3 days. After confirming completion of differentiation of the cells, the cells were treated with a mixture, in which the differentiation medium and cancer-cell conditioned medium (CCM) were mixed at a 1:1 ratio, to form a control group, and simultaneously, a test group was set up by treating with the calcium salts of Preparation Examples 1 to 3 according to three predetermined concentrations.
(§2) A C2C12 cell line was dispensed into a 6-well plate at 4.0×10^5 cells/well, and then cultured in DMEM medium containing 10% fetal bovine serum (FBS) under 37° C. and 5% CO2 conditions for one day. When the cell density reached about 80%, the medium was replaced with a differentiation medium and the cells were cultured for additional 3 days.

lactate = experiment: Lactate in mouse blood, CT26 cachexia model; type: in vivo, Balb/c mice; details: CT26 Balb/c cachexia model, 21 days; G4 PO 200 mpk, G5 IV 100 mpk, G6 IV 200 mpk; vs vehicle control G2
Protocol: The mice were sacrificed, and IL-1β and lactate were analyzed using the blood serum collected at autopsy, and the results are summarized in FIGS. 48A and 48B.
In FIG. 48, each group represents the following.

C2C12 myotube cells = experiment: Myotube diameter (crystal violet, Image J) of CCM-treated C2C12 myotubes; type: cell-based, mouse; details: C2C12 myotubes + CCM 1:1, 72 hours
Protocol: A C2C12 cell line was dispensed into a 6-well plate at 4.0×10^5 cells/well, and then cultured in DMEM medium containing 10% fetal bovine serum (FBS) under 37° C. and 5% CO2 conditions for one day. When the cell density reached about 80%, the medium was replaced with a differentiation medium and the cells were cultured for additional 3 days. […] The myotube diameter was measured using Image J from the above image, and the change in myotube cell diameter is summarized in FIG. 17B. A C2C12 cell line was dispensed into a 6-well plate at 4.0×10^5 cells/well, and then cultured in DMEM medium containing 10% fetal bovine serum (FBS) under 37° C. and 5% CO2 conditions for one day. When the cell density reached about 80%, the medium was replaced with a differentiation medium and the cells were cultured for additional 3 days. […] The myotube diameter was measured using Image J from the above images, and the changes in myotube cell diameter are summarized in FIG. 24B.

Atrogin1 [2] = experiment: Atrogin1 expression (Western blot) in CCM-treated C2C12 myotubes; type: cell-based, mouse; details: 72 hours, compared to other experimental groups (components alone and in combination)
Protocol: as §1, §2

Atrogin1 [3] = experiment: Atrogin1 expression in mouse muscle tissue, CT26 cachexia model; type: in vivo, Balb/c mice; details: CT26 Balb/c cachexia model, 21 days
Rotarod-treadmill test = type: in vivo, Balb/c mice; details: CT26 Balb/c cachexia model; G6 IV 200 mpk
Protocol: After the animal was carefully placed on a Rotarod-treadmill (JD-A-07RA5, B.S Technolab Inc., Korea), and the measurement was made for 300 seconds while increasing the rotation speed from 4 rpm to 40 rpm at regular intervals and, and the results are summarized in FIG. 53A.

MuRF1 [4] = experiment: MuRF1 expression in mouse muscle tissue, CT26 cachexia model; type: in vivo, Balb/c mice; details: CT26 Balb/c cachexia model, 21 days; G4 PO 200 mpk, G5 IV 100 mpk, G6 IV 200 mpk; vs vehicle control G2
Myogenin [5] = experiment: Myogenin expression in mouse muscle tissue, CT26 cachexia model; type: in vivo, Balb/c mice; details: CT26 Balb/c cachexia model, 21 days
Calpain 3 [6] = experiment: Calpain 3 expression (Western blot) in CCM-treated C2C12 myotubes; type: cell-based, mouse
Protocol: as §2, with “C2C12” for “A C2C12”, “cells/well” for “cells/well,”, “and” for “and then”, “days. […] After culturing for 72 hours, the cells were collected and analyzed for PDK-4, which is a target marker, by Western blot and the results are summarized in FIG. 6.” for “days.”
The experiment was performed in the same manner as in Experimental Example 3-1, except that Calpain 3 was analyzed as a target marker for Western blot, and the results are summarized in FIG. 7.
as §2

MyHC [7] = experiment: MyHC expression (Western blot) in CCM-treated C2C12 myotubes; type: cell-based, mouse; details: 72 hours, compared to other experimental groups (components alone and in combination)
Protocol: as §1, §2

PDK-4 [8] = experiment: PDK-4 expression (Western blot) in CCM-treated C2C12 myotubes; type: cell-based, mouse
Protocol: as §2, with “C2C12” for “A C2C12”, “cells/well” for “cells/well,”, “and” for “and then”, “days. […] After culturing for 72 hours, the cells were collected and analyzed for PDK-4, which is a target marker, by Western blot and the results are summarized in FIG. 6.” for “days.”
as §2
Subsequently, MuRF1, Atrogin1, MyHC, Myogenin (muscle markers) and Calpain 3, PDK-4, and GDF-15 (other target markers for muscle related disease) were analyzed using Western blot, and the relative expression levels for the markers are shown in FIGS. 26 and 28.

GDF-15 = GDF-15 expression (Western blot) in CCM-treated C2C12 myotubes; type: cell-based, mouse; details: C2C12 myotubes + CCM, 72 hours; comparison experiment with components alone and in combination
Protocol: as §2, with “C2C12” for “A C2C12”, “cells/well” for “cells/well,”, “and” for “and then”, “days. […] After culturing for 72 hours, the cells were collected and analyzed for PDK-4, which is a target marker, by Western blot and the results are summarized in FIG. 6.” for “days.”
The analysis was performed in the same manner as in Experimental Example 4-1 except for analyzing GDF-15 as a target marker for a Western blot, and the results are summarized in FIGS. 8 and 9.
The analysis was performed in the same manner as in Experimental Example 3-1 except for analyzing PDK-4 as a target marker for Western blot, and the results are summarized in FIGS. 10 and 11.
as §2

Myogenin [9] = experiment: Myogenin expression (Western blot) in CCM-treated C2C12 myotubes; type: cell-based, mouse; details: 72 hours, compared to other experimental groups (components alone and in combination)
Protocol: as §1, §2

Calpain 3 [10] = experiment: Calpain 3 expression in mouse muscle tissue, CT26 cachexia model; type: in vivo, Balb/c mice; details: CT26 Balb/c cachexia model, 21 days, G6 IV 200 mpk
Description: (§3) In FIG. 47, each group represents the following.

MyHC [11] = experiment: MyHC expression in mouse muscle tissue, CT26 cachexia model; type: in vivo, Balb/c mice; details: CT26 Balb/c cachexia model, 21 days; G4 PO 200 mpk, G5 IV 100 mpk, G6 IV 200 mpk; vs vehicle control G2
PDK-4 [12] = details: CT26 Balb/c cachexia model, 21 days
Description: The mice were sacrificed, and the skeletal muscle in the quadriceps was extracted during autopsy, and tissue was homogenized, and proteins were extracted through RIPA lysis buffer, followed by Western blot analysis.
as §3

[13] = Inhibition of weight loss in cancer cachexia animal model; type: in vivo, Balb/c mice; details: CT26 Balb/c cachexia model, G6 IV 200 mpk, p<0.05
Description: In FIG. 49, each group represents the following.

[14] = G4 PO 200 mpk, G5 IV 100 mpk, G6 IV 200 mpk, vs vehicle control G2
[15] = G4 to G6, compared to G3 megestrol 125 mpk oral
[16] = C2C12 myotubes, differentiation medium:CCM 1:1, 72 hours, three predetermined concentrations, vs CCM control

O=C([O-])C(Cl)Cl.O=C1OC(C(O)CO)C([O-])=C1O.[Ca+2] (stereo not shown) [Preparation Example 1, calcium salts of ascorbic acid and dichloroacetic acid]
expression of MuRF1 (MuRF1 [1]): excellent effect of inhibiting the increase of expression
lactate in blood serum (lactate): decrease in the expression levels
diameter of myotube cells (C2C12 myotube cells; predetermined concentration, compared to CCM): increased the diameter up to a level similar to that of the normal control group (UCM)
concentration from which the diameter reduction of myotubes was significantly inhibited (C2C12 myotube cells; three predetermined concentrations): ≥ 10 µM
expression of Atrogin1 (Atrogin1 [2]): excellent effect of inhibiting the increase of expression
expression level of Atrogin1 in quadriceps (Atrogin1 [3]; [14]): decrease in the expression levels
expression level of Atrogin1 in quadriceps (Atrogin1 [3]; [15]): excellent effects decreasing the expression levels
Rotarod-treadmill test improvement compared to G2 (Rotarod-treadmill test): about 24%
expression level of MuRF1 in quadriceps (MuRF1 [4]): decrease in the expression levels
expression level of Myogenin in quadriceps (Myogenin [5]; [14]): increase in the expression levels
expression of Myogenin in quadriceps (Myogenin [5]; [15]): increasing the expression
expression level of Calpain 3 (Calpain 3 [6]; C2C12 myotubes + CCM, 72 hours, compared to other experimental groups (components alone and in combination)): higher expression level
expression level of Calpain 3 (Calpain 3 [6]; [16]): decrease in expression was inhibited
expression of MyHC (MyHC [7]): excellent effect of inhibiting the decrease of expression
expression of PDK-4 (PDK-4 [8]; C2C12 myotubes + CCM, 72 hours, comparison experiment with components alone and in combination): inhibited
expression level of PDK-4 (PDK-4 [8]; [16]): expression was inhibited
expression of GDF-15 (GDF-15): inhibited
expression of Myogenin (Myogenin [9]): excellent effect of inhibiting the decrease of expression
expression level of Calpain 3 in quadriceps (Calpain 3 [10]; G4 PO 200 mpk, G5 IV 100 mpk, vs vehicle control G2): increase in the expression level
expression level of Calpain 3 in quadriceps (Calpain 3 [10]; compared to G3 megestrol 125 mpk): excellent effect of increasing the expression level
expression level of MyHC in quadriceps (MyHC [11]): increase in the expression levels
expression level of PDK-4 in quadriceps (PDK-4 [12]; [14]): decrease in the expression level
expression level of PDK-4 in quadriceps (PDK-4 [12]; G4 to G6, compared to G3 megestrol 125 mpk): excellent effect of reducing the expression level
weight increase compared to G2 ([13]; 17th day): about 6%
weight increase compared to G2 ([13]; 20th day): ~13%
